Assays:
Assay in all cases: relative viability (nuclei count vs DMSO), 5 days (fraction); higher = more cells survive
NCI-H1437 = system: NCI-H1437
How it was run: (§1)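 Lung cancer cell lines were seeded in 1536-well plates and dosed by pin tool the next day, with either a single drug or a fixed anchor-drug dose combined with five library-drug doses (not always all listed) spaced in √10 steps. Five days later, one step fixed the cells and stained their nuclei (final 0.05% Triton X-100, 1% formaldehyde, 1 ug/ml Hoechst), and nuclei were counted on 4× images. Relative viability is the nuclei count in treated wells divided by the count in vehicle wells, and each value is the median of duplicate plates.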

HARA = system: HARA
How it was run: as §1

NCI-H1792 = system: NCI-H1792
How it was run: as §1

NCI-H522 = system: NCI-H522
How it was run: as §1

COR-L23 = system: COR-L23
How it was run: as §1

NCI-H520 = system: NCI-H520
How it was run: as §1

NCI-H441 = system: NCI-H441
How it was run: as §1

LCLC-103H = system: LCLC-103H
How it was run: as §1

HCC-15 = system: HCC-15
How it was run: as §1

NCI-H1666 = system: NCI-H1666
How it was run: as §1

NCI-H650 = system: NCI-H650
How it was run: as §1

LK-2 = system: LK-2
How it was run: as §1

HCC-827 = system: HCC-827
How it was run: as §1

SW 900 = system: SW 900
How it was run: as §1

NCI-H1975 = system: NCI-H1975
How it was run: as §1

EKVX = system: EKVX
How it was run: as §1

NCI-H596 = system: NCI-H596
How it was run: as §1

HCC-44 = system: HCC-44
How it was run: as §1

A-427 = system: A-427
How it was run: as §1

NCI-H838 = system: NCI-H838
How it was run: as §1

COR-L 105 = system: COR-L 105
How it was run: as §1

NCI-H23 = system: NCI-H23
How it was run: as §1

201T = system: 201T
How it was run: as §1

SK-MES-1 = system: SK-MES-1
How it was run: as §1

COc1cc(N2CCC(C(N)=O)CC2)ccc1Nc1nc(N)c(Cl)c(Nc2ccccc2S(=O)(=O)C(C)C)n1 [HG-5-88-01] + CC(=O)Nc1cccc(-n2c(=O)n(C3CC3)c(=O)c3c(Nc4ccc(I)cc4F)n(C)c(=O)c(C)c32)c1 [Trametinib] (partner 0.02 µM)
relative viability (NCI-H1437; first compound 0.04 µM): 0.581 | relative viability (NCI-H1437; first compound 0.1265 µM): 0.56 | relative viability (NCI-H1437; first compound 0.4 µM): 0.447 | relative viability (NCI-H1437; first compound 1.265 µM): 0.475 | relative viability (NCI-H1437; first compound 4 µM): 0.333 | relative viability (HARA; first compound 0.04 µM): 1.01 | relative viability (HARA; first compound 0.1265 µM): 0.709 | relative viability (HARA; first compound 0.4 µM): 0.91 | relative viability (HARA; first compound 1.265 µM): 0.394 | relative viability (HARA; first compound 4 µM): 0.465 | relative viability (NCI-H1792; first compound 0.04 µM): 0.444 | relative viability (NCI-H1792; first compound 0.1265 µM): 0.535 | relative viability (NCI-H1792; first compound 0.4 µM): 0.401 | relative viability (NCI-H1792; first compound 1.265 µM): 0.432 | relative viability (NCI-H1792; first compound 4 µM): 0.576 | relative viability (NCI-H522; first compound 0.04 µM): 0.683 | relative viability (NCI-H522; first compound 0.1265 µM): 0.784 | relative viability (NCI-H522; first compound 0.4 µM): 0.695 | relative viability (NCI-H522; first compound 1.265 µM): 0.705 | relative viability (NCI-H522; first compound 4 µM): 0.636 | relative viability (COR-L23; first compound 0.04 µM): 0.502 | relative viability (COR-L23; first compound 0.1265 µM): 0.664 | relative viability (COR-L23; first compound 0.4 µM): 0.51 | relative viability (COR-L23; first compound 1.265 µM): 0.488 | relative viability (COR-L23; first compound 4 µM): 0.368 | relative viability (NCI-H520; first compound 0.04 µM): 0.568 | relative viability (NCI-H520; first compound 0.1265 µM): 0.831 | relative viability (NCI-H520; first compound 0.4 µM): 0.617 | relative viability (NCI-H520; first compound 1.265 µM): 0.74 | relative viability (NCI-H520; first compound 4 µM): 0.634 | relative viability (NCI-H441; first compound 0.04 µM): 0.543 | relative viability (NCI-H441; first compound 0.1265 µM): 0.428 | relative viability (NCI-H441; first compound 0.4 µM): 0.455 | relative viability (NCI-H441; first compound 1.265 µM): 0.345 | relative viability (NCI-H441; first compound 4 µM): 0.336 | relative viability (LCLC-103H; first compound 0.04 µM): 0.693 | relative viability (LCLC-103H; first compound 0.1265 µM): 0.649 | relative viability (LCLC-103H; first compound 0.4 µM): 0.52 | relative viability (LCLC-103H; first compound 1.265 µM): 0.69 | relative viability (LCLC-103H; first compound 4 µM): 0.732 | relative viability (HCC-15; first compound 0.04 µM): 0.372 | relative viability (HCC-15; first compound 0.1265 µM): 0.359 | relative viability (HCC-15; first compound 0.4 µM): 0.36 | relative viability (HCC-15; first compound 1.265 µM): 0.314 | relative viability (HCC-15; first compound 4 µM): 0.251 | relative viability (NCI-H1666; first compound 0.04 µM): 0.942 | relative viability (NCI-H1666; first compound 0.1265 µM): 0.918 | relative viability (NCI-H1666; first compound 0.4 µM): 0.853 | relative viability (NCI-H1666; first compound 1.265 µM): 0.775 | relative viability (NCI-H1666; first compound 4 µM): 0.621 | relative viability (NCI-H650; first compound 0.04 µM): 1.09 | relative viability (NCI-H650; first compound 0.1265 µM): 1.11 | relative viability (NCI-H650; first compound 0.4 µM): 0.987 | relative viability (NCI-H650; first compound 1.265 µM): 0.696 | relative viability (NCI-H650; first compound 4 µM): 0.786 | relative viability (LK-2; first compound 0.04 µM): 0.927 | relative viability (LK-2; first compound 0.1265 µM): 0.911 | relative viability (LK-2; first compound 0.4 µM): 0.728 | relative viability (LK-2; first compound 4 µM): 0.514 | relative viability (HCC-827; first compound 0.04 µM): 0.529 | relative viability (HCC-827; first compound 0.1265 µM): 0.463 | relative viability (HCC-827; first compound 0.4 µM): 0.538 | relative viability (HCC-827; first compound 1.265 µM): 0.18 | relative viability (HCC-827; first compound 4 µM): 0.269 | relative viability (SW 900; first compound 0.04 µM): 0.941 | relative viability (SW 900; first compound 0.1265 µM): 0.943 | relative viability (SW 900; first compound 0.4 µM): 0.875 | relative viability (SW 900; first compound 1.265 µM): 0.627 | relative viability (SW 900; first compound 4 µM): 0.685 | relative viability (NCI-H1975; first compound 0.04 µM): 0.4 | relative viability (NCI-H1975; first compound 0.1265 µM): 0.446 | relative viability (NCI-H1975; first compound 0.4 µM): 0.331 | relative viability (NCI-H1975; first compound 1.265 µM): 0.329 | relative viability (NCI-H1975; first compound 4 µM): 0.247 | relative viability (EKVX; first compound 0.04 µM): 0.367 | relative viability (EKVX; first compound 0.1265 µM): 0.36 | relative viability (EKVX; first compound 0.4 µM): 0.278 | relative viability (EKVX; first compound 4 µM): 0.266 | relative viability (NCI-H596; first compound 0.04 µM): 0.901 | relative viability (NCI-H596; first compound 0.1265 µM): 0.794 | relative viability (NCI-H596; first compound 0.4 µM): 0.75 | relative viability (NCI-H596; first compound 1.265 µM): 0.808 | relative viability (NCI-H596; first compound 4 µM): 0.778 | relative viability (HCC-44; first compound 0.04 µM): 1.04 | relative viability (HCC-44; first compound 0.1265 µM): 1.03 | relative viability (HCC-44; first compound 0.4 µM): 1.1 | relative viability (HCC-44; first compound 1.265 µM): 1.07 | relative viability (HCC-44; first compound 4 µM): 1.01 | relative viability (A-427; first compound 0.04 µM): 0.8 | relative viability (A-427; first compound 0.1265 µM): 0.754 | relative viability (A-427; first compound 0.4 µM): 0.749 | relative viability (A-427; first compound 1.265 µM): 0.662 | relative viability (A-427; first compound 4 µM): 0.487 | relative viability (NCI-H838; first compound 0.04 µM): 0.518 | relative viability (NCI-H838; first compound 0.1265 µM): 0.439 | relative viability (NCI-H838; first compound 0.4 µM): 0.435 | relative viability (NCI-H838; first compound 1.265 µM): 0.409 | relative viability (NCI-H838; first compound 4 µM): 0.354 | relative viability (COR-L 105; first compound 0.04 µM): 0.471 | relative viability (COR-L 105; first compound 0.1265 µM): 0.423 | relative viability (COR-L 105; first compound 0.4 µM): 0.402 | relative viability (COR-L 105; first compound 1.265 µM): 0.319 | relative viability (COR-L 105; first compound 4 µM): 0.421 | relative viability (NCI-H23; first compound 0.04 µM): 0.383 | relative viability (NCI-H23; first compound 0.1265 µM): 0.336 | relative viability (NCI-H23; first compound 0.4 µM): 0.366 | relative viability (NCI-H23; first compound 1.265 µM): 0.28 | relative viability (NCI-H23; first compound 4 µM): 0.247 | relative viability (201T; first compound 0.04 µM): 0.697 | relative viability (201T; first compound 0.1265 µM): 0.699 | relative viability (201T; first compound 1.265 µM): 0.694 | relative viability (201T; first compound 4 µM): 0.782 | relative viability (SK-MES-1; first compound 0.04 µM): 0.535 | relative viability (SK-MES-1; first compound 0.1265 µM): 0.54 | relative viability (SK-MES-1; first compound 0.4 µM): 0.503 | relative viability (SK-MES-1; first compound 1.265 µM): 0.498 | relative viability (SK-MES-1; first compound 4 µM): 0.619
